ChEMBL document CHEMBL1142237, “Cytotoxic triterpenoid saponins of Albizia gummifera from the Madagascar rain forest” (J Nat Prod, 2007)

Experiments:
Assay type in all cases: functional, cell-based
[1] = system: A2780; test: Antiproliferative activity against human A2780 cells after 96 hrs; details: A2780, 96 h
[2] = system: MDA-MB-435; test: Antiproliferative activity against human MDA-MB-435 cells after 96 hrs; details: MDA-MB-435, 96 h
[3] = system: HT-29; test: Antiproliferative activity against human HT29 cells after 96 hrs; details: HT-29, 96 h
[4] = Antiproliferative activity against human H522-T1 cells after 96 hrs; details: H522-T1, 96 h
[5] = system: U-937; test: Antiproliferative activity against human U937 cells after 96 hrs; details: U-937, 96 h

C=C[C@](C)(CC/C=C(\C)C(=O)O[C@H]1[C@H](O)[C@@H](O)[C@H](O[C@](C)(C=C)CC/C=C(\C)C(=O)O[C@H]2[C@H](O)[C@@H](O)[C@H](O[C@](C)(C=C)CC/C=C(/C)C(=O)O[C@H]3C[C@]4(C(=O)O[C@@H]5O[C@H](CO)[C@@H](O)[C@H](O)[C@H]5O[C@@H]5O[C@@H](C)[C@H](O[C@@H]6OC[C@@H](O)[C@H](O)[C@H]6O)[C@@H](O)[C@H]5O)[C@H](O)C[C@]5(C)C(=CC[C@@H]6[C@@]7(C)CC[C@H](O[C@@H]8O[C@H](CO[C@@H]9O[C@H](C)[C@H](O)[C@H](O)[C@H]9O)[C@@H](O)[C@H](O)[C@H]8O[C@@H]8O[C@H](CO)[C@@H](O)[C@H](O)[C@H]8O)C(C)(C)C7CC[C@]65C)[C@@H]4CC3(C)C)O[C@@H]2C)O[C@@H]1C)O[C@@H]1O[C@H](C)[C@@H](O)[C@H](O)[C@H]1O (stereo not given in full) [GUMMIFERAOSIDE C]
IC50 [1]: 260 nM
IC50 [2]: 480 nM
IC50 [3]: 610 nM
IC50 [4]: 640 nM
IC50 [5]: 290 nM
